Data on 2 molecules can be found in the NIST ThermoML archive (doi:10.1021/je500422t).

The structures appear in SMILES notation. Numbers after ± are expanded uncertainties.

The conditions of data set [1]: Liquid; for mass density: 298.2 K, 101.33 kPa, Vibrating tube method; for Normal boiling temperature: Distillation.
The nature of data set [2]: refractive index (Na D-line) (dimensionless). Particulars: 298.2 K; 101.33 kPa; Liquid; Standard Abbe refractometry.

The term mass density denotes the mass of a sample divided by its volume. A word on the refractive index: it is the speed of light in vacuum divided by its phase velocity in the sample. `COC(=O)OC` [dimethyl carbonate]: in data set [1], the mass density was 1061.9 ± 1 kg/m3 and the Normal boiling temperature was found to be 90.08 ± 1.1 °C. For the same molecule, in data set [2], the refractive index is recorded as 1.3685 ± 0.0004.

Regarding `O=CO` [formic acid], in data set [1], the mass density came out at 1220.04 ± 1.1 kg/m3 and the Normal boiling temperature stood at 101.2 ± 1.1 °C. Besides, in data set [2], the refractive index amounted to 1.37144 ± 0.00039.
